One data set has as its target T1, human TLR8 (Homo sapiens, UniProt Q9NR97).
T1 construct: host or cells: HEK293-Blue-hTLR-8 (HEK293)
T1 sequence (Q9NR97 27-1041): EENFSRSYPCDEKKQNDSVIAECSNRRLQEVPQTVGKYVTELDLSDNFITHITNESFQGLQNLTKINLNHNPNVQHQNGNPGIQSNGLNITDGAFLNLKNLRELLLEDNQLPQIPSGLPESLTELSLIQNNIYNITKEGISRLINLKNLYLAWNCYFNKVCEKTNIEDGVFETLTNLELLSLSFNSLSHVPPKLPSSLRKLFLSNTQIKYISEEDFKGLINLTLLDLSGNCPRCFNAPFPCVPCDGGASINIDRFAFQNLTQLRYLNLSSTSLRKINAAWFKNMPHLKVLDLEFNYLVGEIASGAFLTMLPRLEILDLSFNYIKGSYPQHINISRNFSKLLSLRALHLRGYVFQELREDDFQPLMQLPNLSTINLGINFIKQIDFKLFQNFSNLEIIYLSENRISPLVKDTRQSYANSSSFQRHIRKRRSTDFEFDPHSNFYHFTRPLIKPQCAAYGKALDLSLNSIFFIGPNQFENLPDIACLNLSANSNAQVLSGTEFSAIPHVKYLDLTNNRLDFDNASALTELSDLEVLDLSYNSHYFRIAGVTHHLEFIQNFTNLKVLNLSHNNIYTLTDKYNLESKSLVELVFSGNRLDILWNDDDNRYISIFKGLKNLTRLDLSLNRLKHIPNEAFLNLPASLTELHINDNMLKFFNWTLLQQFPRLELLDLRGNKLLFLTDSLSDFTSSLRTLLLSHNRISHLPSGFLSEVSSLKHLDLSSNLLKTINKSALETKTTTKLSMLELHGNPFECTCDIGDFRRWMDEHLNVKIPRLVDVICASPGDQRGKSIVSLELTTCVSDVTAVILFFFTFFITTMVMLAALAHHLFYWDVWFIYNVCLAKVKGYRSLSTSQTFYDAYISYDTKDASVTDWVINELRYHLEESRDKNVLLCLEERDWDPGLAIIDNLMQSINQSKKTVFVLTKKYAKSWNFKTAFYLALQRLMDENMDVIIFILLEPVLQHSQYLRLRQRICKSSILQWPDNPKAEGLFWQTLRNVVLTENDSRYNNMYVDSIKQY
Description: HEK293-Blue-hTLR-8 cells assay. In kind it is cell-based. The conditions noted are these: HEK293-Blue-hTLR8 cells, R848 stimulation, 20 hrs, SEAP reporter; read-out: HEK/hTLR8 IC50. How it is done: The following tests were carried out in order to determine the activity of the compounds of formula (I) and (Ia) in HEK293-Blue-hTLR-7/8/9 cells assay.
HEK293-Blue-hTLR-8 cells assay:
A stable HEK293-Blue-hTLR-8 cell line was purchased from InvivoGen (Cat. #: hkb-htlr8, San Diego, Calif., USA). These cells were originally designed for studying the stimulation of human TLR8 by monitoring the activation of NE-κB. A SEAP (secreted embryonic alkaline phosphatase) reporter gene was placed under the control of the IFN-β minimal promoter fused to five NE-κB and AP-1-binding sites. The SEAP was induced by activating NE-κB and AP-1 via stimulating HEK-Blue hTLR8 cells with TLR8 ligands. Therefore the reporter expression was declined by TLR8 antagonist under the stimulation of a ligand, such as R848, for incubation of 20 hrs. The cell culture supernatant SEAP reporter activity was determined using QUANTI-Blue™ kit (Cat. #: rep-qbl, Invivogen, San Diego, Ca, USA) at a wavelength of 640 nm, a detection medium that turns purple or blue in the presence of alkaline phosphatase.
HEK293-Blue-hTLR8 cells were incubated at a density of 250,000-450,000 cells/mL in a volume of 170 μL in a 96-well plate in Dulbecco's Modified Eagle's medium (DMEM) containing 4.5 g/L glucose, 50 U/mL penicillin, […], […], 2 mM L-glutamine, 10% (v/v) heat-inactivated fetal bovine serum with addition of 20 μL test compound in a serial dilution in the presence of final DMSO at 1% and 10 μL of 60 uM R848 in above DMEM, perform incubation under 37° C. in a CO2 incubator for 20 hrs. Then 20 μL of the supernatant from each well was incubated with 180 μL Quanti-blue substrate solution at 37° C. for 2 hrs and the absorbance was read at 620˜655 nm using a spectrophotometer. The signalling pathway that TLR8 activation leads to downstream NE-κB activation has been widely accepted, and therefore similar reporter assay was modified for evaluating TLR8 antagonist.

A further data set deals with T2, CYP2D6 (Homo sapiens, UniProt P10635).
T2 construct: tissue BD-Gentest 452117; host or cells: human liver microsomes
T2 sequence (P10635 whole entry): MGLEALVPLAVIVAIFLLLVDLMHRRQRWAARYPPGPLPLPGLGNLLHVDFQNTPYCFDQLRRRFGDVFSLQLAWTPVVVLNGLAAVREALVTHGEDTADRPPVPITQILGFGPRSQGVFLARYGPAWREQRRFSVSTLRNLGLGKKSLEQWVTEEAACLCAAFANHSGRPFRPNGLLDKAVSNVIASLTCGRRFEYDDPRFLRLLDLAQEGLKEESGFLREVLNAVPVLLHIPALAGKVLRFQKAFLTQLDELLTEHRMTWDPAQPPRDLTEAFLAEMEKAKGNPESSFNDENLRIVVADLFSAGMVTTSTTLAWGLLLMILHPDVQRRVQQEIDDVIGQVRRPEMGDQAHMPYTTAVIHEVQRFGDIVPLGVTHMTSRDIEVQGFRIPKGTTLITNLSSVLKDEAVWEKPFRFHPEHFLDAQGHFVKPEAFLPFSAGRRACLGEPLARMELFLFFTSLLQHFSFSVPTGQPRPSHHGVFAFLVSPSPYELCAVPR
The data set is described as follows: CYP inhibition assay in human liver microsome. The class given is in vitro ADME. As to conditions: human liver microsomes, probe dextromethorphan, dextromethorphan substrate, percentage inhibition <0: not or weak inhibitor, read-out: CYP 2D6 inhibition %@10 μM. How it is done: The compounds would be desirable to have minimal DDI liabilities. Therefore, the effects of compounds of formula (I) or (Ia) on CYP2D6 are determined.
This is a high throughput screening assay used for assessment of reversible inhibition of CYP2D6 activity of test compounds in human liver microsome (HLM) in early discovery stage.
10 mM DMSO stock solutions of test compounds were diluted in DMSO to generate 2 mM intermediate stock solution. 250 nL of intermediate stock solution were transferred in duplicate into 3 separate 384 well microtitre plates (assay-ready plates). A mixture of HLM and each substrate was made up. 45 μL of HLM substrate mix was then transferred to each well of an assay ready plate and mixed. The negative (solvent) and positive control (standard inhibitor for CYP 2D6) were included in each assay ready plate. The assay ready plate was warmed to 37° C. in an incubator over 10 minutes. 5 μL pre-warmed NADPH regenerating system was added to each incubation well to start the reaction. Final incubation volume was 50 μL. The assay plate then was placed back in the 37° C. incubator. After 10 minutes incubation, incubates were quenched by addition of 50 μL 100% acetonitrile containing internal standards (20 ng/mL D3-Dextrorphan). The supernatants were collected for RapidFire/MS/MS analysis.
RapidFire online solid phase extraction/sample injection system (Agilent) coupled with API4000 triple quadrupole mass spectrometer (AB Sciex) were used for sample analysis. The mobile phase composed of acetonitrile and water supplemented with 0.1% formic acid. A C4 solid phase extraction cartridge is used for sample separation. MS detection is achieved in positive ion MRM mode.
Data analysis Peak areas for substrate, metabolite and internal standard are determined using the RapidFire integrator software (version 3.6.12009.12296). Peak area ratios (PAR) of metabolite and internal standard (stable-labelled metabolite) are then calculated. The measurement window for each experiment is then defined:
PAR (0% activity), average PAR for all incubations containing concentrated inhibitor; Par (100% activity), average PAR for all incubations containing no inhibitor (DMSO controls);
% Activity (test inhibitor)=
=[PAR(test inhibitor)-PAR(0% activity)]/[PAR(100% activity)-PAR(0% activity)];
% Inhibition (test inhibitor)=100-% Activity (test inhibitor).
(In general: Liver microsomes are a subcellular fraction often used to study metabolism.)

Molecules are shown by their SMILES.

In general, inhibition refers to the relative decrease from the control value, in per cent.

As to `CNc1cc(N2CCN(C[C@H]3CN(c4ccc(C#N)c5ncccc45)C[C@@H](C)O3)CC2)cc(C)n1` [Example 42, 5-[(2R,6S)-2-methyl-6-[[4-[2-methyl-6-(methylamino)-4-pyridyl]piperazin-1-yl]methyl]morpholin-4-yl]quinoline-8-carbonitrile], the IC50 at human TLR8 was under 3 nM. For the same compound, the inhibition at 10 min, 10 μM on CYP2D6 is -0.5%.

As for `C[C@@H]1CN(c2ccc(C#N)c3ncccc23)C[C@H](CN[C@@H]2CCCN(c3ccnc(N)c3)C2)O1` [Example 21, 5-[(2S,6R)-2-[[[(3R)-1-(2-amino-4-pyridyl)-3-piperidyl]amino]methyl]-6-methyl-morpholin-4-yl]quinoline-8-carbonitrile], on human TLR8, the IC50 stood at 15 nM. For the same compound, the inhibition at 10 min, 10 μM on CYP2D6 turned out to be 2%.

As to `Cc1cc(N2CCN(C[C@H]3CN(c4ccc(C#N)c5ncccc45)C[C@@H](C)O3)CC2)cc(CO)n1` [Example 50], on human TLR8, the IC50 worked out at 4 nM. Also, the inhibition at 10 min, 10 μM on CYP2D6 was determined as 10.5%.

`CC(O)c1cc(N2CC3(CN(C[C@H]4CN(c5ccc(C#N)c6ncccc56)C[C@@H](C)O4)C3)C2)ccn1` (stereo partly drawn) [Example 46, 5-[(2S,6R)-2-[[2-[2-(1-hydroxyethyl)-4-pyridyl]-2,6-diazaspiro[3.3]heptan-6-yl]methyl]-6-methyl-morpholin-4-yl]quinoline-8-carbonitrile]: the IC50 at human TLR8 came out at 90 nM. Also, the inhibition at 10 min, 10 μM on CYP2D6 turned out to be 17%.

Take `Cc1cc(N2C[C@H]3CN(C[C@H]4CN(c5ccc(C#N)c6ncccc56)C[C@@H](C)O4)C[C@H]3C2)cc(CO)n1` [Example 10]: the IC50 on human TLR8 worked out at 22 nM. Moreover, at CYP2D6, the inhibition at 10 min, 10 μM was 3.5%.

Consider `C[C@@H]1CN(c2ccc(C#N)c3ncccc23)C[C@H](CN[C@H]2CCCN(c3ccnc(N)c3)C2)O1` [Example 22], for which the IC50 at human TLR8 is 38 nM. Moreover, at CYP2D6, the inhibition at 10 min, 10 μM came out at 2%.

Take `C[C@@H]1CN(c2ccc(C#N)c3ncccc23)C[C@H](CN2CC3(C2)CN(c2ccnc(C4CC4)c2)CCO3)O1` [Example 3, 5-[(2S,6R)-2-[[8-(2-cyclopropyl-4-pyridyl)-5-oxa-2,8-diazaspiro[3.5]nonan-2-yl]methyl]-6-methyl-morpholin-4-yl]quinoline-8-carbonitrile]: on human TLR8, the IC50 was under 3 nM. At CYP2D6, the inhibition at 10 min, 10 μM is 6%.

Turning to `Cc1cc(N2CCOC3(CN(C[C@H]4CN(c5ccc(C#N)c6ncccc56)C[C@@H](C)O4)C3)C2)cc(C)n1` [Example 14], at human TLR8, the IC50 was under 3 nM. Moreover, the inhibition at 10 min, 10 μM at CYP2D6 was 19%.

Regarding `Cc1cc(N2CCC23CN(C[C@H]2CN(c4ccc(C#N)c5ncccc45)C[C@@H](C)O2)C3)ccn1` [Example 15], the IC50 on human TLR8 is 6 nM. Moreover, the inhibition at 10 min, 10 μM at CYP2D6 came to 4%.

On to `Cc1cc(N2CCC[C@H](N(C)C[C@H]3CN(c4ccc(C#N)c5ncccc45)C[C@@H](C)O3)C2)cc(CO)n1` [Example 38], for which the IC50 on human TLR8 came to 4 nM. The inhibition at 10 min, 10 μM at CYP2D6 stood at 0%.

In the case of `Cc1cc(N2CCC[C@@H](NC[C@H]3CN(c4ccc(C#N)c5ncccc45)C[C@@H](C)O3)C2)cc(CO)n1` [Example 24], at human TLR8, the IC50 stood at 10 nM. In addition, at CYP2D6, the inhibition at 10 min, 10 μM is -9.5%.

In the case of `C[C@@H]1CN(c2ccc(C#N)c3ncccc23)C[C@H](CN2CCN(c3cc(N)nc(CO)c3)CC2)O1` [Example 45, 5-[(2S,6R)-2-[[4-[2-amino-6-(hydroxymethyl)-4-pyridyl]piperazin-1-yl]methyl]-6-methyl-morpholin-4-yl]quinoline-8-carbonitrile], the IC50 on human TLR8 amounted to 14 nM. The inhibition at 10 min, 10 μM on CYP2D6 was -2.5%.

Take `Cc1cc(N2CCN(C[C@H]3CN(c4ccc(C#N)c5ncccc45)C[C@@H](C)O3)CC2)cc(N)n1` [Example 40, 5-[(2S,6R)-2-[[4-(2-amino-6-methyl-4-pyridyl)piperazin-1-yl]methyl]-6-methyl-morpholin-4-yl]quinoline-8-carbonitrile]: at human TLR8, the IC50 was under 3 nM. Moreover, on CYP2D6, the inhibition at 10 min, 10 μM came to 14.5%.

Turning to `Cc1cc(N2CC3(CN(C[C@H]4CN(c5ccc(C#N)c6ncccc56)C[C@@H](C)O4)C3)C2)cc(C(C)O)n1` (stereo partly drawn) [Example 44, 5-[(2S,6R)-2-[[2-[2-(1-hydroxyethyl)-6-methyl-4-pyridyl]-2,6-diazaspiro[3.3]heptan-6-yl]methyl]-6-methyl-morpholin-4-yl]quinoline-8-carbonitrile], the IC50 on human TLR8 is 30 nM. The inhibition at 10 min, 10 μM at CYP2D6 is 5%.

Consider `Cc1cc(C2CCN(C[C@H]3CN(c4ccc(C#N)c5ncccc45)C[C@@H](C)O3)CC2)cc(N)n1` [Example 43, 5-[(2S,6R)-2-[[4-(2-amino-6-methyl-4-pyridyl)-1-piperidyl]methyl]-6-methyl-morpholin-4-yl]quinoline-8-carbonitrile], for which, at human TLR8, the IC50 was 18 nM. Further, the inhibition at 10 min, 10 μM on CYP2D6 was -13%.

As to `Cc1cc(N2CCC[C@H](NC[C@H]3CN(c4ccc(C#N)c5ncccc45)C[C@@H](C)O3)C2)cc(CO)n1` [Example 25], on human TLR8, the IC50 came to 14 nM. In addition, the inhibition at 10 min, 10 μM on CYP2D6 is 8.5%.

For the compound `C[C@@H]1CN(c2ccc(C#N)c3ncccc23)C[C@H](CN2CC3(C2)CN(c2ccnc(CO)c2)CCO3)O1` [Example 51], the IC50 on human TLR8 turned out to be 3 nM. Moreover, the inhibition at 10 min, 10 μM on CYP2D6 was -15.5%.

`Cc1cc(N(C)C2CN(C[C@H]3CN(c4ccc(C#N)c5ncccc45)C[C@@H](C)O3)C2)cc(C)n1` [Example 11]: the IC50 on human TLR8 was 11 nM. At CYP2D6, the inhibition at 10 min, 10 μM was -7.5%.

Source of the values: US20210269451A1, “PYRIDINYL HETEROCYCLYL COMPOUNDS FOR THE TREATMENT OF AUTOIMMUNE DISEASE” (Hoffmann-La Roche Inc., priority 2018, published 2021).
